Assay results: patent US6686449B2, “Mutant presenilin 1 polypeptides” (Pharmacia & Upjohn Company, priority 2000, dated 2004)
Where a SMILES comes first, the peptide text is derived from it. The star is where a group is joined. Cbz = O=C(OCc1ccccc1)*

How the values were obtained:
Assay type in all cases: cell-based, human
[1] = tested on: Aβ1-40 production in H125.3-16 (APP-Sw-KK) and APA2 (APP-Sw-KK and PS1-wt) cells; assay: Inhibition assay, stable cell lines: Elisa of Aβ1-40 in conditioned media, PS1wt cell lines; settings: PS1wt cell lines (H125.3-16, APA2)
Description: (§1) The purpose of the experiment was to assess the effect of compounds known or postulated to have an effect on processing at the proposed gamma cleavage site
(§2) The compounds used were L685,458 (Bachem Cat # H-5106) described by Li et al (15), one we have designated 512088, a fenchylamine sulfonamide inhibitor described by Rishton et al. (16). Z-Leu-Leu-Leu-H, also known as MG132 (Peptide Institute Cat # 3175-v) described by Tajima et al (17), and DMSO (Aldrich Cat # 27,685-5) as a vehicle control. All drugs were resuspended in DMSO at a concentration of 10 mM. Serial dilutions of the drugs were made in cell culture media [DMEM (Gibco cat # 11965-092) supplemented with 10% fetal bovine serum, 1 mM sodium pyruvate, 100 units/ml penicillin G, 100 ug/ml streptomycin sulfate, and 400 ug/ml Geneticin]. Stable cell lines used for drug testing were H125.3-16 (expressing APP-Sw-KK), APA2 (co-expressing APP-Sw-KK and PS1-wt), APB10 (co-expressing APP-Sw-KK and PS1-DTG385), and APD3 (co-expressing APP-Sw-KK and PS1-M146V). […] Conditioned media was harvested 24 hours post-treatment and analyzed in an Elisa assay for Aβ40 or Aβ42 levels (Described below). […]
(§3) Primary Antibody 6E10 was purchased from Senetek PLC (St. Louis, Mo.). […] Plates were read on a Molecular Devices Thermomax Plate Reader with integrated software that calculated the data and analyzed confidence values for the samples. […]

[2] = tested on: Aβ1-40 production in APB10 cells (APP-Sw-KK and PS1-DTG385); assay: Inhibition assay, stable cell lines: Elisa of Aβ1-40 in conditioned media, PS1-DTG385 cell line
Description: as §1, §2, §3

[3] = tested on: Aβ1-42 production in H125.3-16 (APP-Sw-KK) and APA2 (APP-Sw-KK and PS1-wt) cells; assay: Inhibition assay, stable cell lines: Elisa of Aβ1-42 in conditioned media, PS1wt cell lines; settings: for dose response profile, Aβ1-42 production: PS1wt cell lines (H125.3-16, APA2)
Description: as §1
(§4) The compounds used were L685,458 (Bachem Cat # H-5106) described by Li et al (15), one we have designated 512088, a fenchylamine sulfonamide inhibitor described by Rishton et al. (16). Z-Leu-Leu-Leu-H, also known as MG132 (Peptide Institute Cat # 3175-v) described by Tajima et al (17), and DMSO (Aldrich Cat # 27,685-5) as a vehicle control. All drugs were resuspended in DMSO at a concentration of 10 mM. Serial dilutions of the drugs were made in cell culture media [DMEM (Gibco cat # 11965-092) supplemented with 10% fetal bovine serum, 1 mM sodium pyruvate, 100 units/ml penicillin G, 100 ug/ml streptomycin sulfate, and 400 ug/ml Geneticin]. Stable cell lines used for drug testing were H125.3-16 (expressing APP-Sw-KK), APA2 (co-expressing APP-Sw-KK and PS1-wt), APB10 (co-expressing APP-Sw-KK and PS1-DTG385), and APD3 (co-expressing APP-Sw-KK and PS1-M146V). APP-Sw-KK (An APP construct with a di-lysine motif at the C terminus) has been described in U.S. patent application Ser. No. 09/416901 filed Oct. 13, 1999 and also in WO 00/17369 “Alzheimer's Disease Secretase” published Mar. 30, 2000. Cells were plated at a concentration of 2.5×10^4 or 5.0×10^4 cells per well of a 96 well dish on day 1. Cells were treated with various concentrations of drugs on day 3. Conditioned media was harvested 24 hours post-treatment and analyzed in an Elisa assay for Aβ40 or Aβ42 levels (Described below). An MTS assay (Promega) was performed on the cells 24 hours post-treatment to assess toxicity levels of the drugs.
as §3

[4] = tested on: Aβ1-42 production in APB10 cells (APP-Sw-KK and PS1-DTG385); assay: Inhibition assay, stable cell lines: Elisa of Aβ1-42 in conditioned media, PS1-DTG385 cell line; settings: for dose response profile, Aβ1-42 production: PS1-DTG385 cell line
Description: as §1, §4
Primary Antibody 6E10 was purchased from Senetek PLC (St. Louis, Mo.). Secondary Antibodies 162, 163, 164 and 165 were purchased from New York Institute for Basic Research (Staten Island, N.Y.). β Bachem (Torrence, Calif.). β-Amyloid 1-40 is cat #ZN571) and 1-42 is cat #ZN327) Neutravidin was purchased from Pierce (Rockford, Ill.). The tetramethylbenzidine color development system was purchased from Kirkigaard & Perry Laboratories Inc. (Gaithersburg, Md.). Plates were read on a Molecular Devices Thermomax Plate Reader with integrated software that calculated the data and analyzed confidence values for the samples.
The coating buffer is 0.1M NaHCO3, pH8.2. Wash buffer is Dulbecco's PBS+0.05% Tween 20 (PBST). Blocking buffer is PBST+1% BSA (make up fresh the day of assay). The substrate is TMB Kirkegaard & Perry Labs. (cat.no.50-76-03). Plates are Costar 96 well half area EIA plates (cat.no.3690). Supplemental BSA is supplied as PBST+10% BSA made fresh on the day of assay.
1. Coat half area 96 well plates (Costar 3690) overnight @ 4° C. with capture antibody 6E10 (50 μl/well) made at […] in coating buffer, pH8.2.
2. Wash plates on an automatic plate washer 1× with wash buffer (175 μl/well).
3. Add 75 ul of blocking buffer to each well. Incubate 1 hr. @room temperature, then wash 3×.
4. Make standard curves from fresh aliquots for each amyloid in blocking buffer as follows:
b. Aβ 1-42 (10 μM. stock in DMSO): Make an initial dilution of […] then follow the instructions for Abeta 1-40 starting at the 1:100 dilution.
5. Add 50 μl of each std. (use duplicates) or sample dilution into the appropriate wells.
Incubate the standards and unknown samples @ room temperature for 3 to 4 hrs. If the samples being assayed contain no protein, 5 μl. of supplemental 10% BSA should be added to the sample wells before adding 50 μl. of sample.
6. […]

[5] = tested on: gamma-secretase (Aβ1-40 and Aβ1-42 production in three stable cell lines); assay: Inhibition assay, stable cell lines: overall potency on Aβ1-40 and Aβ1-42 production; settings: greater than 512088
Description: as §1
The compounds used were L685,458 (Bachem Cat # H-5106) described by Li et al (15), one we have designated 512088, a fenchylamine sulfonamide inhibitor described by Rishton et al. (16). Z-Leu-Leu-Leu-H, also known as MG132 (Peptide Institute Cat # 3175-v) described by Tajima et al (17), and DMSO (Aldrich Cat # 27,685-5) as a vehicle control. All drugs were resuspended in DMSO at a concentration of 10 mM. Serial dilutions of the drugs were made in cell culture media [DMEM (Gibco cat # 11965-092) supplemented with 10% fetal bovine serum, 1 mM sodium pyruvate, 100 units/ml penicillin G, 100 ug/ml streptomycin sulfate, and 400 ug/ml Geneticin]. Stable cell lines used for drug testing were H125.3-16 (expressing APP-Sw-KK), APA2 (co-expressing APP-Sw-KK and PS1-wt), APB10 (co-expressing APP-Sw-KK and PS1-DTG385), and APD3 (co-expressing APP-Sw-KK and PS1-M146V). APP-Sw-KK (An APP construct with a di-lysine motif at the C terminus) has been described in U.S. patent application Ser. No. 09/416901 filed Oct. 13, 1999 and also in WO 00/17369 “Alzheimer's Disease Secretase” published Mar. 30, 2000. […] Conditioned media was harvested 24 hours post-treatment and analyzed in an Elisa assay for Aβ40 or Aβ42 levels (Described below). […]

Row | SMILES | dose response profile, inhibition of Aβ1-40 [1] | dose response profile, inhibition of Aβ1-40 [2] | dose response profile, Aβ1-42 production [3] | peak in the dose response (Aβ1-42) ([3]; PS1wt cell lines, FIG. 8) [µM] | dose response profile, Aβ1-42 production [4] | potentiation of production of Aβ1-42 relative to Aβ1-40 ([4]; PS1DTG385 cells) | peak in the dose response (Aβ1-42) ([4]; PS1DTG385 cells, FIG. 8) [µM] | shift of the dose response compared with the PS1wt cell lines ([4]; PS1DTG385 cells) | potency relative to 512088 [5]
1 | CC(C)C[C@@H](C=O)NC(=O)[C@H](CC(C)C)NC(=O)[C@H](CC(C)C)NC(=O)OCc1ccccc1 [MG132, Z-Leu-Leu-Leu-H] (Cbz-Leu-Leu-Leu-aldehyde) | not strongly biphasic in any of the cell lines except the parental PS1wt HEK125.3-16 | not strongly biphasic | strongly biphasic | 10 | not strongly biphasic | does not happen | 0.3 | – | –
2 | CC(C)C[C@H](NC(=O)[C@H](Cc1ccccc1)C[C@@H](O)[C@H](Cc1ccccc1)NC(=O)OC(C)(C)C)C(=O)N[C@@H](Cc1ccccc1)C(N)=O [L685,458] | biphasic dose response | linear decrease | biphasic | – | clearly biphasic | – | – | slightly lower potency | approximately 10 fold
